Experimental data from ChEMBL document CHEMBL1201862, “PubChem BioAssay data set” (2004).
One block for each compound: values may come before it. Active and inactive are the calls of the source.

How the values were obtained:
[1] = biological target: Lysosomal acid glucosylceramidase (Homo sapiens, UniProt P04062); assay: Dose response cell-based high throughput screening assay to identify enhancers of beta-glucosidase activity. [Related pubchem assays: 784 ]; type: functional
HEK293 [2] = assay: NOD1 signaling inhibitors, primary screen, cell-based, luminescence, uHTS (AID 1578); type: functional; settings: Homo sapiens
HEK293 [3] = assay: cells; type: functional, cell-based; settings: Homo sapiens
HEK293 [4] = assay: cells; type: functional, cell-based; settings: Homo sapiens; remark: listed apart in the source
[5] = biological target: Voltage-dependent T-type calcium channel subunit alpha-1H (Homo sapiens, UniProt O95180); type: functional;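 further: channel activity triggered by adding a high calcium stimulation buffer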
HEK293 [6] = assay: NOD2 signaling inhibitors in MDP-stimulated cells, cell-based, uHTS, luminescence (AID 2001); type: functional; settings: Homo sapiens
[7] = biological target: Nucleotide-binding oligomerization domain-containing protein 2 (Homo sapiens, UniProt Q9HC29); assay: NOD2 signaling inhibitors, cell-based, luminescence, uHTS, HEK293 (AID 1566); type: functional
HEK293 [8] = assay: cells; type: functional, cell-based; settings: Homo sapiens; remark: listed apart in the source
[9] = biological target: T1, Neuropeptide Y receptor type 2 (Homo sapiens, UniProt P49146); assay: Fluorescence-based cell-based high-throughput dose response assay for agonists of NPY-Y2. [Related pubchem assays: 1703 (Screening assay (CNGC inhibitors).), 1359 (Screening assay (NPY-Y2 potentiators or agonists).), 1304 (Screening assay (NPY-Y1 potentiators or agonists).), 1710 (Screening assay (NPY-Y2 agonists).), 1791 (Summary AID.)]; type: functional
T1 sequence (P49146 whole entry): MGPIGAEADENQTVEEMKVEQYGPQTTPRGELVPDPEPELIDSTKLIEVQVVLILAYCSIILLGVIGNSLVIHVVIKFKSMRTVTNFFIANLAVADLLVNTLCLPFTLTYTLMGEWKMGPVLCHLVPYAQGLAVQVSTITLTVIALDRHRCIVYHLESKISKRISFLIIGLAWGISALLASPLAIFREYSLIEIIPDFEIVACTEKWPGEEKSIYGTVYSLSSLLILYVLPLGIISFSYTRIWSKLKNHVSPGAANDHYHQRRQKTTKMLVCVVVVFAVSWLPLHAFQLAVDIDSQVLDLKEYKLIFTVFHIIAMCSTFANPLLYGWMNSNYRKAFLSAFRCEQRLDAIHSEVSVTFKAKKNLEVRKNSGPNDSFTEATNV

HEK293 [10] = assay: Fluorescence-based counterscreen for potentiators or agonists of NPY-Y2: cell-based high-throughput dose response assay to identify inhibitors of cyclic nucleotide gated ion channel (CNGC) activity. In this assay, the parental HEK293 cell line transfected with a cyclic-nucleotide gated ion channel (CNGC)-based cAMP sensor is used to measure inhibition of isoproterenol-induced CNGC activity by test compound.; type: functional; settings: Homo sapiens
[11] = THP-1 cell cytotoxicity, dose response, cytotoxicity control for Vif-APOBEC3G degradation inhibitor project, THP-1 cells (AID 1117359); type: functional; settings: Human immunodeficiency virus 1, THP-1
[12] = biological target: T2, Neuropeptide Y receptor type 1 (Homo sapiens, UniProt P25929); assay: Fluorescence-based counterscreen for agonists of NPY-Y2: cell-based high-throughput dose response assay for agonists of NPY-Y1.; type: functional
T2 sequence (P25929 whole entry): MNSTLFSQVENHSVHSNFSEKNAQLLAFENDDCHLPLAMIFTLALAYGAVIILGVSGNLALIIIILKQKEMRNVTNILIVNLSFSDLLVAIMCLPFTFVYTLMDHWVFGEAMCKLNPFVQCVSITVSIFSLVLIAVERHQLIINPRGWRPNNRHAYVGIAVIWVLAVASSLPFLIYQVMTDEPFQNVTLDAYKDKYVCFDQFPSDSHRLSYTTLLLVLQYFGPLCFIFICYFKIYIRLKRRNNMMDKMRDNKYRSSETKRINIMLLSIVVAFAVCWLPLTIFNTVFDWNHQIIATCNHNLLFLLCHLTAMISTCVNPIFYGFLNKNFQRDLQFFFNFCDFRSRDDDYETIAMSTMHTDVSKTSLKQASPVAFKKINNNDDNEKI

[13] = biological target: DNA dC->dU-editing enzyme APOBEC-3G (Homo sapiens, UniProt Q9HC16); assay: Dose Response confirmation of small molecule APOBEC3G DNA Deaminase Inhibitors via a fluorescence-based single-stranded DNA deaminase assay. [Related pubchem assays (depositor defined):AID493012, AID493028]; type: functional
[14] = biological target: DNA dC->dU-editing enzyme APOBEC-3A (Homo sapiens, UniProt P31941); assay: APOBEC3A DNA deaminase inhibitors, dose response, biochemical (AID 504722); type: functional
Chain of DNA dC->dU-editing enzyme APOBEC-3A (P31941 whole entry): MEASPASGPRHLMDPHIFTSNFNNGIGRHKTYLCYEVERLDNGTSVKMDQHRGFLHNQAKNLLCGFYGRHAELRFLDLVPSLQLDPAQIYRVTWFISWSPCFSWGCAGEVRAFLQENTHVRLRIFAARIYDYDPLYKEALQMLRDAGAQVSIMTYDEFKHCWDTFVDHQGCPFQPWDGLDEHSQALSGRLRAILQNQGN

Chain of Lysosomal acid glucosylceramidase (P04062 whole entry): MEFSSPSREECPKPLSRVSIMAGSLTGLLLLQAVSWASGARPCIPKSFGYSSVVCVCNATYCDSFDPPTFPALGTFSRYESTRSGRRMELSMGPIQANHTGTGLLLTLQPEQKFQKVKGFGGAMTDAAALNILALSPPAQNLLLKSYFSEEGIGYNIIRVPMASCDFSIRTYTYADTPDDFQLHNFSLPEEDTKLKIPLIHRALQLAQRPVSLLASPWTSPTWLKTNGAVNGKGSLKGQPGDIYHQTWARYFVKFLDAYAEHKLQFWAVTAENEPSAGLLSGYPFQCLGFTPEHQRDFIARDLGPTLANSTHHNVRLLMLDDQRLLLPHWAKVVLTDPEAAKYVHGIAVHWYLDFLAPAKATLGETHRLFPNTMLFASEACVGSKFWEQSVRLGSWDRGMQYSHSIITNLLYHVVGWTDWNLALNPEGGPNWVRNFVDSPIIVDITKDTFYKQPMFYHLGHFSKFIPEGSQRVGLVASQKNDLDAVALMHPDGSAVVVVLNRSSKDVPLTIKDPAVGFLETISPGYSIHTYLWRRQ
Chain of DNA dC->dU-editing enzyme APOBEC-3G (Q9HC16 whole entry): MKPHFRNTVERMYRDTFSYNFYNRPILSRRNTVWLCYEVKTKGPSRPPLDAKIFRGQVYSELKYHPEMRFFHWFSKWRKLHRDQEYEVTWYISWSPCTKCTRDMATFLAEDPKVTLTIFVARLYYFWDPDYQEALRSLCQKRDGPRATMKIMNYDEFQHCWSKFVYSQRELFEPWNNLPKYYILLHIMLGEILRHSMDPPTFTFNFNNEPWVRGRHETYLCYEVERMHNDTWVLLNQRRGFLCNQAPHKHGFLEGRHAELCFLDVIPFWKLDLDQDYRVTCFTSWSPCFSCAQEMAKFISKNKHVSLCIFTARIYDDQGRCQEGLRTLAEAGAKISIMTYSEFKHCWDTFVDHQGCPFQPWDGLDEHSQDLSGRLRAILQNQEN
Chain of Voltage-dependent T-type calcium channel subunit alpha-1H (O95180 whole entry): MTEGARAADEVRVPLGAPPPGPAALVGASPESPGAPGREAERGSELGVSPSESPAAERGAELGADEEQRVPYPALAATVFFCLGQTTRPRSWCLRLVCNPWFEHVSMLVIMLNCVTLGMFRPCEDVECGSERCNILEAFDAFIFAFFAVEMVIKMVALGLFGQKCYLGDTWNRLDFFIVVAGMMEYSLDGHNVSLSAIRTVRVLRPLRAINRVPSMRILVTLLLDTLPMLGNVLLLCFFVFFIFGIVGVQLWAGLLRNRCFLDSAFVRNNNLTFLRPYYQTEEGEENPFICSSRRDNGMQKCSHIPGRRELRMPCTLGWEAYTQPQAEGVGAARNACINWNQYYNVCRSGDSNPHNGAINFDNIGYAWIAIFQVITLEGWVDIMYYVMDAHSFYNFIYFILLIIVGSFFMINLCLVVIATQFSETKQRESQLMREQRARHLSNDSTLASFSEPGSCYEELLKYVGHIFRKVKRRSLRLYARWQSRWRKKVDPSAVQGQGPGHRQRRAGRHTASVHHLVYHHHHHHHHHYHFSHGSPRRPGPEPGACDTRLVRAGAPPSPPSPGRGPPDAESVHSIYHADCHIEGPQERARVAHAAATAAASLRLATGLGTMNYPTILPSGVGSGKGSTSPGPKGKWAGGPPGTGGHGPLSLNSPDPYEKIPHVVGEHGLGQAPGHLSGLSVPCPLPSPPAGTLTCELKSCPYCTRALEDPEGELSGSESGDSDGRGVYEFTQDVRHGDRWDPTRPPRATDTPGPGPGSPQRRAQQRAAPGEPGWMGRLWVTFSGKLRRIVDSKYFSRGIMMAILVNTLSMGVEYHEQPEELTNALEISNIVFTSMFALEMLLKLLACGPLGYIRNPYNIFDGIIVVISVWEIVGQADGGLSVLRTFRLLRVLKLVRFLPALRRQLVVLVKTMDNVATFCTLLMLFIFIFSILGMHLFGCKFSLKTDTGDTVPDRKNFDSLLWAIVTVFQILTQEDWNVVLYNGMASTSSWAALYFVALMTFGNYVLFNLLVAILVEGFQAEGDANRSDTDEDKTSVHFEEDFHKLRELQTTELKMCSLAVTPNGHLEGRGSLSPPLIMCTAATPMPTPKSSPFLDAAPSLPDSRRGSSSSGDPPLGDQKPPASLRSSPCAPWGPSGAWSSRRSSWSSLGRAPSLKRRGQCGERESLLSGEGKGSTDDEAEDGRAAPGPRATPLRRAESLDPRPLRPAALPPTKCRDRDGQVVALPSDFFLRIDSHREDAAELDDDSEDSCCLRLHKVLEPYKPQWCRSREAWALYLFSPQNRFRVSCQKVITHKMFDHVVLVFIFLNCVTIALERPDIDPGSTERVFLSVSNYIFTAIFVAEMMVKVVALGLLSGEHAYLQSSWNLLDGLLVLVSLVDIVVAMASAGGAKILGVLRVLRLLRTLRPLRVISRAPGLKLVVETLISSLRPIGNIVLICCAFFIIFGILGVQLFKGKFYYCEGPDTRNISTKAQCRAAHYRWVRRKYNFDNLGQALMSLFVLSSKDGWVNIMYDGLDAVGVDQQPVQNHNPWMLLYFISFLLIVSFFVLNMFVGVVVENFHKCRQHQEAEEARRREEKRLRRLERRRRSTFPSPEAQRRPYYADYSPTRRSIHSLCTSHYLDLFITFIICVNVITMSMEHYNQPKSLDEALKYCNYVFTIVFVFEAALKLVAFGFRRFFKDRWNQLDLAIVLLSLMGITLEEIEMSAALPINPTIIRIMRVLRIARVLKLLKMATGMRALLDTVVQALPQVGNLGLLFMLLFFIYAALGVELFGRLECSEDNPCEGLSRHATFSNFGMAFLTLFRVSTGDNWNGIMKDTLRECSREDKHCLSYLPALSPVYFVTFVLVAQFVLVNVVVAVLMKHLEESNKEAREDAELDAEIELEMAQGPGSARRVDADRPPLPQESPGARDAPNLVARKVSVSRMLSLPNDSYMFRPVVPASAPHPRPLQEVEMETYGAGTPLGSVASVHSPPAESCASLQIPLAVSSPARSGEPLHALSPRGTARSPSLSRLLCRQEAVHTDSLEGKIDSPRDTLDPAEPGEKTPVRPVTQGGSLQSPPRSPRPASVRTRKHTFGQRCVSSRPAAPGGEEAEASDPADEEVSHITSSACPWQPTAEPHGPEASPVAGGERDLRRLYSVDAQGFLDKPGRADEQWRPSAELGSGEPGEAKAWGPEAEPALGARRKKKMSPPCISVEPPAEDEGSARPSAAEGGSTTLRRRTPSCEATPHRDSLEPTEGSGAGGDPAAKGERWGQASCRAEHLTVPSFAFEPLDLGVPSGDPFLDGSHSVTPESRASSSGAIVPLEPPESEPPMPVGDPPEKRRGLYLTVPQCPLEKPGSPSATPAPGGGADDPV
Chain of Nucleotide-binding oligomerization domain-containing protein 2 (Q9HC29 whole entry, the tested form may be a part): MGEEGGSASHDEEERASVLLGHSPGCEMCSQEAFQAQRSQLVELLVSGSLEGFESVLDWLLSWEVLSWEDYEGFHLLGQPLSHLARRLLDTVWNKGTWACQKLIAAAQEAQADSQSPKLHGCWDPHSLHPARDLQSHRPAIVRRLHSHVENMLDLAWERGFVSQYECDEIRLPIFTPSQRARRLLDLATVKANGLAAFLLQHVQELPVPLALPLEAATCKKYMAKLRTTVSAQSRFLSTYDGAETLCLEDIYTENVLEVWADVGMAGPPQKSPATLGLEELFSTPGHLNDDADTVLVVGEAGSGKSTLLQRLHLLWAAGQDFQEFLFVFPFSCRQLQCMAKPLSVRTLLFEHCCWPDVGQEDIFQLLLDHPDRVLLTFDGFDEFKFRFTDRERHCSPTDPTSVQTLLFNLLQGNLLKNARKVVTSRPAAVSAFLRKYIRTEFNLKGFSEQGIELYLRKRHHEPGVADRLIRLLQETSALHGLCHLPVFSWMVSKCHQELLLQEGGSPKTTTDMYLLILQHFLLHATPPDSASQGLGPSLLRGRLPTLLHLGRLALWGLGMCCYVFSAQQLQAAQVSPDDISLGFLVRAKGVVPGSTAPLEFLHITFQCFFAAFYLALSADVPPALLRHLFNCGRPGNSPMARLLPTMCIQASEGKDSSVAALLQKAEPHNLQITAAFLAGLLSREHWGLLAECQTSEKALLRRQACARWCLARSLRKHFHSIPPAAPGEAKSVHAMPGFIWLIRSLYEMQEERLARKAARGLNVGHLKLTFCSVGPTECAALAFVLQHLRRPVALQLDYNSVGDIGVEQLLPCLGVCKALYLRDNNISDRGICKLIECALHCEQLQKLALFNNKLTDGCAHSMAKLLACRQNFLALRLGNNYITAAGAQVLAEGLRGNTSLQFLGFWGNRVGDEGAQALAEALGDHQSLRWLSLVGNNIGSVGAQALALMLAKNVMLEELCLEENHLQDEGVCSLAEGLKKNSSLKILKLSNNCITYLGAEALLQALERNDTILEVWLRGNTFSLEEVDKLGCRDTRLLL

- EC50 [1]: > 50 µM (not active)
SMILES: Cc1ccc(C)c(N(C)S(=O)(=O)c2cccc3nsnc23)c1

SMILES: Cc1nc2ccccc2c2oc(C(=O)NCC3COc4ccccc4O3)cc12 (centres undefined)
- EC50 (HEK293 [2]): 4.69 µM (active)
- IC50 (HEK293 [3]): 4.14 µM (active)
- IC50 (HEK293 [4]): > 20 µM (inactive)
- EC50 [5]: 7.77 µM (active)
- IC50 (HEK293 [6]): 3.93 µM (inactive)
- EC50 [7]: 4.75 µM (active)
- IC50 (HEK293 [8]): 8.6 µM (active)

SMILES: O=C(N/N=C\c1ccc(Cl)cc1)C1=NOC2COC3(CCN(c4ccc([N+](=O)[O-])cc4)CC3)OCC12 (centres undefined)
- EC50 [9]: > 35.4 µM (not active)
- EC50 (HEK293 [10]): > 35.4 µM (not active)
- CC50 [11]: > 40 µM (active)
- EC50 [12]: > 35.4 µM (not active)

SMILES: N#Cc1c(S)nc2c(c1-c1cccnc1)CCCC2
- IC50 [13]: 2.72 µM (active)
- IC50 [14]: > 100 µM (inactive)
